Results reported in US20130296393A1, “METHOD FOR CONTROLLING CLUBROOT” (ISHIHARA SANGYO KAISHA, LTD., priority 2011, published 2013).

How the values were obtained:
Type in all cases: in vivo
[1] = tested on: Plasmodiophora brassicae; experiment: Cabbage clubroot control test, pot test, cyazofamid vs chlorothalonil (Example 3 / Comparative Example 3); parameters: key to Disease control value: control value = (1 − treated/control severity) × 100; key to Disease severity: severity = Σ(plants × index 0-4)/(plants × 4) × 100; settings: for Disease control value / Disease severity: 57 days after settled planting
Description: (§1) Disease severity={Σ(number of each index of diseased plants×disease index)/(number of plants surveyed×4)}×100
(§2) Disease control value={1−(treatment disease severity/control disease severity)}×100
(§3) 0: No adhesion of clubroot, 1: clubroot adhesion to lateral root, 2: clubroot adhesion to the entire lateral root or clubroot adhesion to a part of tap root, 3: adhesion of large clubroot to tap root, and 4: clubroot adhesion to the entire tap root.
A spore suspension of Plasmodiophora brassicae (fungus density: 1×10^5 fungi/g dry soil) was inoculated into a sterilization soil adjusted to pH of 6.0 with Sandoseto and after introducing the resulting test soil into a 1/5000 a pot, a cabbage (variety: Okina) seedling grown in a cell seedling tray (128 cells/seedling box) was settled-planted by establishing five plantings for each test section having a size of 0.02 m^2 for one plant. Immediately, 4 days, 7 days and 14 days after settled planting, the chemical solution for spraying prepared by the same method as in Example 1(1) was drenched into the soil in a ratio of 250 ml/plant. Fifty-seven days after the settled planting, the number of each index of clubroot adhesion to the root was investigated. For comparison, the same test was carried out on a control section where a soil drench treatment with the chemical solution for spraying was not applied.
A chemical solution for spraying in a concentration of 800 ppm was prepared by diluting 40% chlorothalonil (Daconil 1000 [trade name], manufactured by SDS K.K.) with water.
The test was carried out by the same procedure as in Example 3 except that the chemical solution (cyazofamid) for spraying was replaced by the chemical solution (chlorothalonil) for spraying prepared in Comparative Example 3(1).
(§4) The disease severity and disease control value of Example 3 and Comparative Example 3 were determined by the same methods as in Example 1 and Comparative Example 1. In addition, the weight of cabbage in the aerial part was measured. Furthermore, the test result was shown by the average value of five plantings.

[2] = tested on: Plasmodiophora brassicae; experiment: Cabbage clubroot control test, pot test (Example 1 / Comparative Example 1); settings: 0.3% dust formulation 30 kg/10 a soil incorporation just before settled planting
Experimental: A chemical solution for spraying at 50 ppm was prepared by diluting 9.4% w/w cyazofamid (Ranman [trade name] flowable, manufactured by Ishihara Sangyo Kaisha Ltd.) with water.
A spore suspension of Plasmodiophora brassicae (fungus density: 1×10^5 fungi/g dry soil) was inoculated into a sterilization soil adjusted to pH of 6.2 with Sandoseto and after introducing the resulting test soil into a 1/5000 a pot, a cabbage (variety: Okina) seedling grown in a cell seedling tray (128 cells/seedling box) was settled-planted by establishing five plantings for each test section having a size of 0.02 m^2 per one plant. Just after the settled planting, 3 days, 7 days, 10 days and 14 days after the settled planting, the chemical solution for spraying prepared in (1) was applied by soil drench at a ratio of 250 ml/plant. Sixty days after the settled planting, the number of each index of clubroot adhesion to the root was investigated. For comparison, the same test was carried out on a control section where a soil drench treatment with the chemical solution for spraying was not applied.
(§5) The test was carried out by the same method as in Example 1(2) except that in place of the soil drench treatment with the chemical solution for spraying, 30 kg/10 a of 0.3% flusulfamide (dust formulation of Nebijin [trade name], manufactured by Mitsui Chemicals Agro, Inc.) was applied to the test soil just before settled planting and incorporated into the soil by means of a small mixer (interfusion depth: 15 cm).
In Example 1 and Comparative Example 1, the adhesion of clubroot was investigated by pulling out the root of cabbage. The adhesion of clubroot was investigated by calculating the disease severity using the following formula. In addition, the weight of cabbage in the aerial part was measured. Furthermore, the test result was shown by the average value of five plantings.
as §1, §2, §3

[3] = tested on: Plasmodiophora brassicae; experiment: Influence of rainfall on clubroot control effect in cabbage (Example 4 / Comparative Example 4); settings: pot; for Weight in the aerial part / Disease control value / Disease severity: 0.3% dust formulation 30 kg/10 a soil incorporation just before settled planting; for Disease control value / Disease severity: 67 days after settled planting
Experimental: as §1, §2, §3
The test was carried out by the same method as in Example 3 except for preparing an area subjected to a rainfall treatment of 20 mm by means of a rainfall apparatus (a treatment at a rate of 10 mm/hour for 2 hours) the day before treatment, and an area not subjected to the rainfall treatment. Sixty-seven days after the settled planting, the number of each index of clubroot adhesion to the root was investigated. For comparison, the same test was carried out on a control section where a soil drench treatment with the chemical solution for spraying was not applied.
as §5, with “4” for “1(2)”, “before the” for “before”
as §4, with “4” for “3”

[4] = 800 ppm soil drench 250 ml/plant 4 days after settled planting
[5] = 800 ppm soil drench 250 ml/plant 7 days after settled planting
[6] = 800 ppm soil drench 250 ml/plant 14 days after settled planting
[7] = 800 ppm soil drench 250 ml/plant just after settled planting
[8] = 800 ppm soil drench after settled planting
[9] = with rainfall treatment, dust formulation soil incorporation just before settled planting

For `N#Cc1c(Cl)c(Cl)c(Cl)c(C#N)c1Cl` [chlorothalonil], the “Weight in the aerial part” value [1, 4] was 92 g, the Disease control value [1, 4] was 25 and the Disease severity [1, 4] was 60. The “Weight in the aerial part” value [1, 5] was 69 g, the Disease control value [1, 5] was 0 and the Disease severity [1, 5] was 90. For the same compound, the “Weight in the aerial part” value [1, 6] was 70 g, the Disease control value [1, 6] was 0 and the Disease severity [1, 6] was 90. The “Weight in the aerial part” value [1, 7] was 96 g, the Disease control value [1, 7] was 56 and the Disease severity [1, 7] was 35. For the same compound, the Control effect [1, 8] was “a control effect which is sufficient for practical use was not obtained” and the “Effect of the disease on weight in the aerial part” value [1, 8] was “greatly affected by the disease”.
For `O=[N+]([O-])c1ccc(NS(=O)(=O)c2ccc(Cl)c(C(F)(F)F)c2)c(Cl)c1` [flusulfamide], the “Weight in the aerial part” value [2] was 173 g, the Disease control value ([2]; 60 days after settled planting) was 100 and the Disease severity ([2]; 60 days after settled planting) was 0. For the same compound, the “Weight in the aerial part” value ([3]; with rainfall treatment 20 mm) was 104 g, the Disease control value ([3]; with rainfall treatment 20 mm) was 50 and the Disease severity ([3]; with rainfall treatment 20 mm) was 35. For the same compound, the Control effect [3, 9] was “a practical control effect was not obtained”, the “Effect of the disease on weight in the aerial part” value [3, 9] was “greatly affected by the disease” and the “Weight in the aerial part” value ([3]; without rainfall treatment) was 118 g. The Disease control value ([3]; without rainfall treatment) was 100 and the Disease severity ([3]; without rainfall treatment) was 0.
